{"source": "patent US8558004B2", "about": "“Reagents and kits for detection of influenza virus and the like” (priority 2007, dated 2013)", "system": "influenza virus (A/WS/33)", "details": "FIG. 6", "method": "The protocol described here is a two-step assay, i.e., the neuraminidase reaction and firefly luciferase reaction are carried out sequentially in two steps. Approximately 1 μg of conjugate was incubated at 37° C. for 15 minutes with 0, 0.5, 5, 50, 500 or 5,000 TCID50 units of influenza virus (A/WS/33) in a 25 μL reaction solution (32.5 mM MES, pH 6.5, 4 mM CaCl2, 0.65% Triton X-100). 12.5 μL of the reaction solution was mixed with 100 μL of luciferase reaction solution (20 nM recombinant firefly luciferase, 4 mM ATP, 13.4 mM MgSO4, 100 mM Trizma, pH 7.9, 4% mannitol, and 1% sucrose) and measured for light signal using a luminometer (Sirius purchased from Berthold). Total light output was collected by integrating RLU over a period of 30 seconds.", "data": [{"smiles": "CC(=O)NC1C(O)CC(Oc2ccc3nc(C4=NC(C(=O)O)CS4)sc3c2)(C(=O)O)OC1C(O)C(O)CO", "note": "(centres unmarked) [N-acetylneuraminic acid-firefly luciferin conjugate]", "values": [{"measurement": "influenza virus input resulting in significantly more signal in comparison with the negative control", "setting": "approx. 1 μg conjugate, 37° C., 15 minutes, pH 6.5, RLU integrated over 30 seconds", "value": 50, "unit": "TCID50 units"}, {"measurement": "response of the signal to virus input", "setting": "over the entire range tested (0.5 to 5,000 TCID50 units)", "value": "linear response"}]}]}
